biological target: T1, human Nav1.6 (hNav1.6) (Homo sapiens, UniProt Q9UQD0); experiment: Modulation of late sodium current (INaL), PatchXpress electrophysiology; format: cell-based; settings: HEK293; 1 μM compound; HEK-293 cells expressing recombinant human Nav channel; late current evoked by 300 nM ATX-II; steady-state inhibition; read-out: INaL v1.6 (1 μM, % Inhibition)
T1 construct: expressed in transfected cells; host or cells: HEK-293 (G418 selection)
Protocol: Functional characterization of exemplary compounds to modulate INaL expressed by the Nav1.6 voltage-gated sodium channel was accomplished using the PatchXpress™ high throughput electrophysiology platform (Molecular Devices, Sunnyvale, Calif.). HEK-293 cells expressing recombinant, human Nav1.6 (hNav1.6) were grown in DMEM/high-glucose Dulbecco's modified, 10% FBS, 2 mM sodium pyruvate, 10 mM HEPES and 400 μg/mL G418. Cells were grown to 50%-80% confluency prior to harvesting. Trypsinized cells were washed, allowed to recover for 1 hour and then resuspended in extracellular recording solution at a concentration of 1×10^6 cells/ml. The onboard liquid handling facility of the PatchXpress was used for dispensing cells and applying test compounds. Nav late currents were evoked by the application of 300 nM ATX-II. INaL was evoked by depolarizing pulses to 0 mV for 200 ms from a non-inactivating holding potential (e.g., −120 mV) at a frequency of 0.1 Hz. INaL amplitude and stability were determined by analyzing the mean current amplitude over the final 20 ms of the test pulse. […] Percent steady-state inhibition of INaL was calculated as: [(INaL_compound)/(INaL_control)]*100, where INaL_compound and INaL_control represent INaL recorded in the presence or absence of compound, respectively.

T1 sequence (Q9UQD0 whole entry): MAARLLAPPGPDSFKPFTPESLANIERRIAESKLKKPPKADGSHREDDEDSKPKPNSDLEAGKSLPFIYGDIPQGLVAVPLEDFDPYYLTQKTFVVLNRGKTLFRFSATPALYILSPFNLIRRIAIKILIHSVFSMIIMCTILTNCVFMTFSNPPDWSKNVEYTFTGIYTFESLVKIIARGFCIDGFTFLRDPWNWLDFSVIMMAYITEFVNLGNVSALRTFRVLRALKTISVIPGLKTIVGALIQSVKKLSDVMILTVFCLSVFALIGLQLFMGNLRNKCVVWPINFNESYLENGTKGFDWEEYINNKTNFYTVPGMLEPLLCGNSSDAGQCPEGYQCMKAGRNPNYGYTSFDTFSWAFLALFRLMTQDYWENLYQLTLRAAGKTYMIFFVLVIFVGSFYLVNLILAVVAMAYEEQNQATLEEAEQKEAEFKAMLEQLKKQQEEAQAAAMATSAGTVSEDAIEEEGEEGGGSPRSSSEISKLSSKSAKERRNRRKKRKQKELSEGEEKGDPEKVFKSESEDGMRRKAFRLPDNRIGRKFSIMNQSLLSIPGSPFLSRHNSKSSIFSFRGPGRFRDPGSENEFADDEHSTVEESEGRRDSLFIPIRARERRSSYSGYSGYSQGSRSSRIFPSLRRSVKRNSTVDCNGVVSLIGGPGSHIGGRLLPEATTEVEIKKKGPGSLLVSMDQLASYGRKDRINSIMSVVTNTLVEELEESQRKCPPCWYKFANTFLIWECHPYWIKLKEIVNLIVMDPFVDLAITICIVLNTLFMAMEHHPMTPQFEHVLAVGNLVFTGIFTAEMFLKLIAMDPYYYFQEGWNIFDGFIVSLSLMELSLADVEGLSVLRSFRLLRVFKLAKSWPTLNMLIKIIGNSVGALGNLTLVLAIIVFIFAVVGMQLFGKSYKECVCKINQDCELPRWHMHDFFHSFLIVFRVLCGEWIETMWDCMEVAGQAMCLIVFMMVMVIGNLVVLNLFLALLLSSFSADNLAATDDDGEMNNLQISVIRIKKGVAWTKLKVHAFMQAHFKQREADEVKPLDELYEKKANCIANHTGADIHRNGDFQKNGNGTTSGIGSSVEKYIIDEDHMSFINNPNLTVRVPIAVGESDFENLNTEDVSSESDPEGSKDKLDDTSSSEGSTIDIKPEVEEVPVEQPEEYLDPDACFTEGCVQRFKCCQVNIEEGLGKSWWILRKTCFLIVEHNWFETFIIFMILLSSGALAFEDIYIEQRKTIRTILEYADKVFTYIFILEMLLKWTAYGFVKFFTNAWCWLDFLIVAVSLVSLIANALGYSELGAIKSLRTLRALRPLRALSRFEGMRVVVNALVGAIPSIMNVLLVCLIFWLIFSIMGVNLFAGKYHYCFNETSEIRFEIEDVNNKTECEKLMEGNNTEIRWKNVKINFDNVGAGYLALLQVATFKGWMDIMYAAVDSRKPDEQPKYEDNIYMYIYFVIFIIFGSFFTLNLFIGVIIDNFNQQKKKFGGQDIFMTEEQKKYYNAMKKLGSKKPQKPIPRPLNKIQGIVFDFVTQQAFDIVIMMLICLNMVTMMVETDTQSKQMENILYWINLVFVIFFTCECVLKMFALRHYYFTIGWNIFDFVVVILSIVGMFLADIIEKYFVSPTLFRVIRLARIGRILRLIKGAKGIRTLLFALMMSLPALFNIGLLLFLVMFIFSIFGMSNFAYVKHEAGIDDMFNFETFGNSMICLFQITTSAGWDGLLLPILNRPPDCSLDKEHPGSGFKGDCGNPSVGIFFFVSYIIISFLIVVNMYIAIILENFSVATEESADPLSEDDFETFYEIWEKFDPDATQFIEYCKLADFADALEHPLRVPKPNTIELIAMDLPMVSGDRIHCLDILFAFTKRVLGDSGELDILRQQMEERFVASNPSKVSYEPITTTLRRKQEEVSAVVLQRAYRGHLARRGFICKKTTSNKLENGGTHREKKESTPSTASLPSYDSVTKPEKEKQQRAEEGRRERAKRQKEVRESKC

Q: For `NC(=O)Cn1c(=O)oc2ccc(-c3ccc(OC(F)(F)F)cc3)cc21` [Compound 42], which inhibition at 1 µM is on record?
A: The inhibition at 1 µM was less than 30%.

Q: For `O=c1oc2ccc(-c3ccc(OC(F)(F)F)cc3)nc2n1CCc1ncccn1` [Compound 87], which inhibition at 1 µM is on record?
A: The inhibition at 1 µM was 30 to 70%.

Q: With `O=c1oc2ccc(-c3ccc(OC(F)(F)F)cc3)cc2n1CC1CCCOC1` (stereo not drawn) [Compound 72] as the compound, how does the inhibition at 1 µM read?
A: Its inhibition at 1 µM is greater than 70%.

Q: For `Cc1cc(OC(F)(F)F)ccc1-c1ccc2oc(=O)n(CC(=O)N3CCCC3)c2n1` [Compound 144], which inhibition at 1 µM is on record?
A: The inhibition at 1 µM was less than 30%.

Q: For `Cc1nnc(Cn2c(=O)oc3ccc(-c4ccc(OC(F)(F)F)cc4)cc32)o1` [Compound 51], which inhibition at 1 µM is on record?
A: The inhibition at 1 µM was 30 to 70%.

Q: With `O=c1oc2ccc(-c3ccc(OC(F)(F)F)cc3)cc2n1CC1CCOC1` (stereo not drawn) [Compound 68] as the compound, how does the inhibition at 1 µM read?
A: Its inhibition at 1 µM is greater than 70%.

Q: For `O=c1oc2ccc(-c3ccc(OC(F)(F)F)cc3)nc2n1Cc1cnccn1` [Compound 143], which inhibition at 1 µM is on record?
A: The inhibition at 1 µM was greater than 70%.

Q: How did the inhibition at 1 µM turn out when `CO[C@H]1CCN(C(=O)Cn2c(=O)oc3ccc(-c4ccc(OC(F)(F)F)cc4)cc32)C1` [Compound 125] was run?
A: The inhibition at 1 µM was less than 30%.

Q: `O=c1oc2ccc(-c3ccc(OC(F)(F)F)cc3)cc2n1CCC1CC1` [Compound 19] was tested. Which inhibition at 1 µM did it give?
A: Its inhibition at 1 µM is greater than 70%.

Q: With `COC[C@H]1CCN(C(=O)Cn2c(=O)oc3ccc(-c4ccc(OC(F)(F)F)cc4)cc32)C1` (single isomer, unassigned) [Compound 139] as the compound, how does the inhibition at 1 µM read?
A: Its inhibition at 1 µM is 30 to 70%.

Q: How did the inhibition at 1 µM turn out when `O=C(Cn1c(=O)oc2ccc(-c3ccc(OC(F)(F)F)cc3)cc21)N1CC[C@@H](O)C1` [Compound 114] was run?
A: The inhibition at 1 µM was less than 30%.

Q: Which inhibition at 1 µM does the source give for `O=c1oc2ccc(-c3ccc(OC(F)(F)F)cc3)nc2n1CCc1ccncn1` [Compound 146] here?
A: Its inhibition at 1 µM is greater than 70%.

Q: Which inhibition at 1 µM does the source give for `O=c1oc2ccc(-c3ccc(OC(F)(F)F)cc3)nc2n1Cc1cn[nH]c1` [Compound 165] here?
A: The inhibition at 1 µM was 30 to 70%.

Q: `Cc1nnc(Cn2c(=O)oc3ccc(-c4ccc(OC(F)(F)F)cc4)nc32)s1` [Compound 155] was tested. Which inhibition at 1 µM did it give?
A: Its inhibition at 1 µM is greater than 70%.

Q: With `Cn1c(=O)oc2ncc(-c3ccc(OC(F)(F)F)cc3)cc21` [Compound 43] as the compound, how does the inhibition at 1 µM read?
A: Its inhibition at 1 µM is less than 30%.

Q: How did the inhibition at 1 µM turn out when `O=c1oc2ccc(-c3ccc(OC(F)(F)F)cc3)cc2n1C[C@H]1CCOC1` (single isomer, unassigned) [Compound 70] was run?
A: The inhibition at 1 µM was 30 to 70%.

Q: For `Cc1nnc(CCN2C(=O)Cc3ccc(-c4ccc(OC(F)(F)F)cc4)cc32)o1` [Compound 21], which inhibition at 1 µM is on record?
A: The inhibition at 1 µM was 30 to 70%.

Q: With `CC(=O)N1CCC[C@H]1Cn1c(=O)oc2ccc(-c3ccc(OC(F)(F)F)cc3)cc21` [Compound 111] as the compound, how does the inhibition at 1 µM read?
A: Its inhibition at 1 µM is 30 to 70%.

Q: How did the inhibition at 1 µM turn out when `O=c1oc2ccc(-c3cnc(OCC(F)(F)F)c(F)c3)nc2n1CCc1ncccn1` [Compound 122] was run?
A: Its inhibition at 1 µM is less than 30%.

Q: Which inhibition at 1 µM does the source give for `O=c1oc2ccc(-c3ccc(OC(F)(F)F)cc3)cc2n1C[C@@H]1CCOC1` (single isomer, unassigned) [Compound 69] here?
A: The inhibition at 1 µM was greater than 70%.

Q: For `O=c1oc2ccc(-c3ccc(OC(F)(F)F)cc3)nc2n1CC1COC1` [Compound 102], which inhibition at 1 µM is on record?
A: Its inhibition at 1 µM is greater than 70%.

Q: `CCn1c(=O)oc2ccc(-c3cnc(OCC(F)(F)F)c(F)c3)cc21` [Compound 96] was tested. Which inhibition at 1 µM did it give?
A: Its inhibition at 1 µM is 30 to 70%.

Q: For `COC[C@@H]1CCN(C(=O)Cn2c(=O)oc3ccc(-c4ccc(OC(F)(F)F)cc4)cc32)C1` (single isomer, unassigned) [Compound 138], which inhibition at 1 µM is on record?
A: The inhibition at 1 µM was 30 to 70%.

Q: `COCCCn1c(=O)oc2ccc(-c3ccc(OC(F)(F)F)cc3)cc21` [Compound 15] was tested. Which inhibition at 1 µM did it give?
A: Its inhibition at 1 µM is less than 30%.

Q: `O=c1oc2ccc(-c3ccc(OCC(F)(F)F)nc3)cc2n1CC(F)(F)F` [Compound 6] was tested. Which inhibition at 1 µM did it give?
A: The inhibition at 1 µM was 30 to 70%.

Q: Which inhibition at 1 µM does the source give for `Cn1c(=O)oc2ccc(-c3ccc(OC(F)(F)F)cc3)nc21` [Compound 75] here?
A: Its inhibition at 1 µM is greater than 70%.

Q: How did the inhibition at 1 µM turn out when `O=C(O)CCn1c(=O)oc2ccc(-c3ccc(OC(F)(F)F)cc3)cc21` [Compound 24] was run?
A: Its inhibition at 1 µM is less than 30%.

Q: For `Cc1n[nH]cc1Cn1c(=O)oc2ccc(-c3ccc(OC(F)(F)F)cc3)nc21` [Compound 167], which inhibition at 1 µM is on record?
A: Its inhibition at 1 µM is less than 30%.

Q: How did the inhibition at 1 µM turn out when `Cc1cc(Cn2c(=O)oc3ccc(-c4ccc(OC(F)(F)F)cc4)nc32)on1` [Compound 160] was run?
A: The inhibition at 1 µM was greater than 70%.

Q: `C[C@H](O)CCn1c(=O)oc2ccc(-c3ccc(OC(F)(F)F)cc3)cc21` [Compound 98] was tested. Which inhibition at 1 µM did it give?
A: Its inhibition at 1 µM is 30 to 70%.

Q: `Cn1cc(Cn2c(=O)oc3ccc(-c4ccc(OC(F)(F)F)cc4)nc32)cn1` [Compound 151] was tested. Which inhibition at 1 µM did it give?
A: The inhibition at 1 µM was greater than 70%.

Q: How did the inhibition at 1 µM turn out when `O=c1oc2ccc(-c3ccc(OC(F)(F)F)cc3)nc2n1C[C@@H]1CCCO1` (single isomer, unassigned) [Compound 64] was run?
A: Its inhibition at 1 µM is greater than 70%.

Q: For `O=c1oc2ncc(-c3ccc(OC(F)(F)F)cc3)cc2n1Cc1ccccc1` [Compound 34], which inhibition at 1 µM is on record?
A: The inhibition at 1 µM was 30 to 70%.

Q: With `Cc1cc(Cn2c(=O)oc3ccc(-c4ccc(OC(F)(F)F)cc4)nc32)no1` [Compound 156] as the compound, how does the inhibition at 1 µM read?
A: Its inhibition at 1 µM is greater than 70%.

Q: With `Cn1c(=O)n(CC(F)(F)F)c2cc(-c3ccc(OC(F)(F)F)cc3)ccc21` [Compound 32] as the compound, how does the inhibition at 1 µM read?
A: Its inhibition at 1 µM is 30 to 70%.

Q: `O=c1[nH]c2nc(-c3ccc(OC(F)(F)F)cc3)ccc2o1` [Compound 29, 5-[4-(trifluoromethoxy)phenyl]-3H-oxazolo[4,5-b]pyridin-2-one] was tested. Which inhibition at 1 µM did it give?
A: Its inhibition at 1 µM is less than 30%.

Q: With `O=c1oc2ncc(-c3ccc(OC(F)(F)F)cc3)cc2n1CCc1ncccn1` [Compound 92] as the compound, how does the inhibition at 1 µM read?
A: Its inhibition at 1 µM is less than 30%.

Q: With `O=C1OCCN1CCCn1c(=O)oc2ccc(-c3ccc(OC(F)(F)F)cc3)cc21` [Compound 31] as the compound, how does the inhibition at 1 µM read?
A: The inhibition at 1 µM was 30 to 70%.

Q: Which inhibition at 1 µM does the source give for `Cc1nc(Cn2c(=O)oc3ccc(-c4ccc(OC(F)(F)F)cc4)nc32)no1` [Compound 162] here?
A: The inhibition at 1 µM was greater than 70%.

Q: How did the inhibition at 1 µM turn out when `Cn1nccc1Cn1c(=O)oc2ccc(-c3ccc(OC(F)(F)F)cc3)nc21` [Compound 158] was run?
A: Its inhibition at 1 µM is 30 to 70%.

Q: With `O=c1oc2ccc(-c3ccc(OC(F)(F)F)cc3)nc2n1C[C@H]1CCOC1` (single isomer, unassigned) [Compound 62] as the compound, how does the inhibition at 1 µM read?
A: Its inhibition at 1 µM is greater than 70%.

Q: With `O=c1oc2ccc(-c3ccc(OC(F)(F)F)cc3)nc2n1C[C@@H]1CCOC1` (single isomer, unassigned) [Compound 61] as the compound, how does the inhibition at 1 µM read?
A: Its inhibition at 1 µM is greater than 70%.

Q: How did the inhibition at 1 µM turn out when `Cc1nnc(CCn2c(=O)oc3ccc(-c4ccc(OC(F)(F)F)cc4)cc32)o1` [Compound 3] was run?
A: The inhibition at 1 µM was greater than 70%.

Q: Which inhibition at 1 µM does the source give for `COCCn1c(=O)oc2ccc(-c3ccc(OC(F)(F)F)cc3)cc21` [Compound 9] here?
A: The inhibition at 1 µM was less than 30%.

Q: For `O=c1oc2ccc(-c3ccc(OC(F)(F)F)cc3)nc2n1C[C@H]1CCCCO1` (single isomer, unassigned) [Compound 54], which inhibition at 1 µM is on record?
A: Its inhibition at 1 µM is 30 to 70%.

Q: For `O=c1[nH]c2cc(-c3ccc(OC(F)(F)F)cc3)ccc2o1` [Compound 5, 5-[4-(trifluoromethoxy)phenyl]-3H-1,3-benzoxazol-2-one], which inhibition at 1 µM is on record?
A: The inhibition at 1 µM was greater than 70%.

Q: With `O=C(Cn1c(=O)oc2ccc(-c3ccc(OC(F)(F)F)cc3)cc21)N1CC[C@H](O)C1` [Compound 115] as the compound, how does the inhibition at 1 µM read?
A: Its inhibition at 1 µM is less than 30%.

Q: With `CS(=O)(=O)N1CCC[C@H]1Cn1c(=O)oc2ccc(-c3ccc(OC(F)(F)F)cc3)cc21` [Compound 113] as the compound, how does the inhibition at 1 µM read?
A: Its inhibition at 1 µM is 30 to 70%.

Q: Which inhibition at 1 µM does the source give for `O=c1oc2ccc(-c3ccc(OC(F)(F)F)cc3)nc2n1CCc1cnccn1` [Compound 123] here?
A: The inhibition at 1 µM was greater than 70%.

Q: With `CO[C@@H]1CCN(C(=O)Cn2c(=O)oc3ccc(-c4ccc(OC(F)(F)F)cc4)cc32)C1` [Compound 126] as the compound, how does the inhibition at 1 µM read?
A: Its inhibition at 1 µM is 30 to 70%.

Q: How did the inhibition at 1 µM turn out when `CCN(C)C(=O)Cn1c(=O)oc2ccc(-c3ccc(OC(F)(F)F)cc3)cc21` [Compound 85] was run?
A: Its inhibition at 1 µM is 30 to 70%.

Q: With `O=c1oc2ccc(-c3ccc(OC(F)(F)F)cc3)nc2n1CC(F)F` [Compound 86] as the compound, how does the inhibition at 1 µM read?
A: The inhibition at 1 µM was greater than 70%.

Q: For `O=C1Cc2ccc(-c3ccc(OC(F)(F)F)cc3)cc2N1CC(F)(F)F` [Compound 4], which inhibition at 1 µM is on record?
A: The inhibition at 1 µM was greater than 70%.

Q: For `Cc1nnc(Cn2c(=O)oc3ccc(-c4ccc(OC(F)(F)F)cc4)nc32)o1` [Compound 153], which inhibition at 1 µM is on record?
A: Its inhibition at 1 µM is 30 to 70%.
